Assays:
Artemia salina = test: Brine shrimp lethality; assay type: in vivo; conditions: for % mortality / dead / live: 10 nauplii, 24 hrs
blaCTX-M15 = blaCTX-M15 (Escherichia coli O25b:H4, UniProt A0A5R8T042); test: Beta-lactamase inhibition assay; assay type: biochemical, Salmonella typhi; conditions: for BL inhibitory activity: nitrocefin, 490 nm
blaCTX-M15, sequence (A0A5R8T042 29-291): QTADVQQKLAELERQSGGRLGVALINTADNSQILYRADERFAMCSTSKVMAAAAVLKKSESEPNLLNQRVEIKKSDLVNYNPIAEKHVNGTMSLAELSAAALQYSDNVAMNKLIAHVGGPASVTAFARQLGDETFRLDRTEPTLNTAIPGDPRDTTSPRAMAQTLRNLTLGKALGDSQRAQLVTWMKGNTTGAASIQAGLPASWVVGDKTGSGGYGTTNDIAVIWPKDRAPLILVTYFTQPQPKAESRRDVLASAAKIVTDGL

Structure (SMILES): COc1cccc2c1C(=O)c1c(O)c3c(c(O)c1C2=O)C[C@@](O)(C(=O)CO)C[C@@H]3O[C@H]1C[C@H](N)[C@H](O)[C@H](C)O1 [Doxorubicin]
- % mortality (Artemia salina; 25 μg/ml): 10%
- dead (Artemia salina; 25 μg/ml): 1
- live (Artemia salina; 25 μg/ml): 9
- % mortality (Artemia salina; 50 μg/ml): 20%
- dead (Artemia salina; 50 μg/ml): 2
- live (Artemia salina; 50 μg/ml): 8
- % mortality (Artemia salina; 75 μg/ml): 20%
- dead (Artemia salina; 75 μg/ml): 2
- live (Artemia salina; 75 μg/ml): 8
- % mortality (Artemia salina; 100 μg/ml): 30%
- dead (Artemia salina; 100 μg/ml): 3
- live (Artemia salina; 100 μg/ml): 7
- LD50 (Artemia salina; brine shrimp, tested 25-100 μg/ml): 187 µg/mL

Structure (SMILES): O=C(O)[C@H]1/C(=C/CO)O[C@@H]2CC(=O)N21 [abcam Clavulanic acid, Clavulanic acid]
- Ki (blaCTX-M15): 38.9 µM
- BL inhibitory activity (blaCTX-M15; concentration 0.03 ug/ml): 0.9345
- BL inhibitory activity (blaCTX-M15; concentration 0.09 ug/ml): 0.8498
- BL inhibitory activity (blaCTX-M15; concentration 1 ug/ml): 0.753
- BL inhibitory activity (blaCTX-M15; concentration 5 ug/ml): 0.623
- BL inhibitory activity (blaCTX-M15; concentration 10 ug/ml): 0.53
- BL inhibitory activity (blaCTX-M15; concentration 50 ug/ml): 0.239
- BL inhibitory activity (blaCTX-M15; concentration 100 ug/ml): 0.09
- BL inhibitory activity (blaCTX-M15; concentration 150 ug/ml): 0.02
- BL inhibitory activity (blaCTX-M15; concentration 200 ug/ml): 0.015

— paper PMC10698858 (Journal of chemical information and modeling, 2023)
